Data published in patent US8188121B2, “Substituted pyridines as antiparasitic AZA teraryl compounds” (The University of North Carolina at Chapel Hill, priority 2005, dated 2012).
Where a name gives a salt, the structure may show the parent alone. Read-outs that look alike come from different tables or passages of the source.

Legend:
[1] = test system: Trypanosoma brucei rhodesiense (T. b. r.); experiment: In vitro antiprotozoal activity against T. b. r.; format: cell-based
Protocol: (§1) In vitro antiprotozoal activities were measured following established protocols. See Ismail, M. A., et al., J. Med. Chem., 46, 4761-4769 (2003); Stephens, C. E., et al., Bioorg. Med. Chem. Lett., 13, 2065-2069 (2003) (in vitro assay against Leishmania donovani).
(§2) Testing methods are as described above in Example 17.

[2] = test system: L-6 rat mycoblast cells; experiment: cells
Protocol: as §1, §2

[3] = test system: Plasmodium falciparum (P. f.); experiment: In vitro antiprotozoal activity against P. f.; format: cell-based
Protocol: as §1, §2

[4] = test system: STIB 900 strain of Trypanosoma brucei rhodesiense; experiment: T. b. r. STIB 900 mouse model; format: in vivo; conditions: for responders at 100 mg/kg / responders at 20 mg/kg: Trypanosoma brucei, 1440 h; for responders at 100 mg/kg: read-out: Cures; for responders at 20 mg/kg: read-out: Cures (converted)
Protocol: The activities of compounds 20, 18, 21, 48, 23c, 24c, 5, 4, and 10 against the STIB 900 strain of Trypanosoma brucei rhodesiense (T. b. r.) in a mouse model are shown in Table 3. […] Groups of four mice were infected intraperitoneally with 2×10^5 bloodstream forms of T. b. r. STIB 900 which originates from a patient in Tanzania. On days 3, 4, 5, and 6 post-infection the experimental groups were treated with the indicated compound, either by the intraperitoneal route, or for prodrugs, by the oral route. Usually the highest tolerated dose was used. The highest tolerated dose was determined in a pretoxicological experiment.
Parasitemia of the mice was checked daily up to day 14 post-infection and thereafter 2 times per week up to day 60. One group of mice was not treated and acted as control. Untreated control animals expire between day 7 and 8 post-infection. For relapsing mice, the day of death was recorded and the survival time determined. For the data shown in Table 3, cures reflect the number of mice that survive and are parasite free for 60 days. Survival reflects the average days of survival.
as §2

[5] = Trypanosoma brucei, RHODESIENSE, Table 1, k/K = thousand, read-out: T. b. r. IC50
[6] = Rattus norvegicus, L6, read-out: CT IC50
[7] = Plasmodium falciparum, Table 1, k/K = thousand
[8] = 100 mg/kg po, days 3-6 post-infection, average days of survival
[9] = 100 mg/kg po, days 3-6 post-infection, mice surviving parasite free for 60 days, groups of four
[10] = 20 mg/kg ip, days 3-6 post-infection, average days of survival
[11] = 20 mg/kg ip, days 3-6 post-infection, mice surviving parasite free for 60 days, groups of four
[12] = Table 1, k/K = thousand, read-out: T. b. r. IC50
[13] = read-out: CT IC50, Table 1, L-6 cells
[14] = Rattus norvegicus, L6, read-out: CT IC50, Table 1, L-6 cells
[15] = Table 2, K = thousand, read-out: T. b. r. IC50
[16] = read-out: CT IC50, Table 4, L-6 cells

For `N=C(NO)c1ccc(-c2ccc(-c3ccc(C(=N)NO)o3)cc2)cc1` [Compound 3, N-Hydroxy-5-[4′-(N-hydroxyamidino)-biphenyl-4-yl]-furan-2-carboxamidine], the IC50 [1, 5] was 67 µM, the IC50 [2, 6] was 106 µM and the IC50 [3, 7] was 6.6 µM.
`CONC(=N)c1ccc(-c2ccc(-c3ccc(C(=N)NOC)o3)cc2)cc1` [Compound 4, N-Methoxy-5-[4′-(N-methoxyamidino)-biphenyl-4-yl]-furan-2-carboxamidine] gave an IC50 [1, 5] of 24 µM, an IC50 [2, 6] greater than 206 µM and an IC50 [3, 7] of 1.6 µM. The Survival [4, 8] was 29 days and the responders at 100 mg/kg [4, 9] was 0%.
`CC(=O)O.N=C(N)c1ccc(-c2ccc(-c3ccc(C(=N)N)o3)cc2)cc1` [Compound 5, 5-(4′-Amidinobiphenyl-4-yl)-furan-2-carboxamidine acetate salt] gave an IC50 [1, 5] of 0.005 µM, an IC50 [2, 6] of 2 µM and an IC50 [3, 7] of 0.001 µM. It also gave a Survival [4, 10] of 21.25 days and a responders at 20 mg/kg [4, 11] of 0%.
In the case of `NC(=NO)c1ccc(-c2ccc(-c3ccc(C(N)=NO)cc3)cc2)cc1` [Compound 18, [1,1′;4′,1″]Terphenyl-4,4″-bis-N-hydroxycarboxamidine], the IC50 [1, 12] is reported as 22.8 µM, the IC50 [2, 13] is reported as greater than 212 µM and the IC50 ([3]; Table 1, k/K = thousand) is reported as greater than 118 µM. The Survival [4, 8] was 24.75 days and the Cures [4, 9] was 0/4.
Work on `CON=C(N)c1ccc(-c2ccc(-c3ccc(C(N)=NOC)cc3)cc2)cc1` [Compound 21, [1,1′;4′,1″]Terphenyl-4,4″-bis-N-methoxycarboxamidine] yielded an IC50 [1, 5] of 13.8 µM, an IC50 [2, 6] of 118 µM and an IC50 [3, 7] of 0.371 µM. The Survival [4, 8] was 20.75 days and the responders at 100 mg/kg [4, 9] was 0%.
`CC(=O)O.N=C(N)c1ccc(-c2ccc(-c3ccc(C(=N)N)cc3)nc2)cc1` [Compound 23c, Phenyl[1,1′]pyridyl[4′,1″]phenyl-4,4″-bis-carboxamidine acetate salt] gave an IC50 [1, 12] of 0.002 µM, an IC50 [2, 13] of 49.9 µM and an IC50 ([3]; Table 1, k/K = thousand) of 0.01 µM. For the same molecule, the Survival [4, 10] was greater than 60 days and the Cures [4, 11] was 4/4.
With `NC(=NO)c1ccc(-c2ccc(-c3ccc(C(N)=NO)cc3)c(F)c2)cc1` [Compound 24a, 2′-Fluoro-[1,1′;4′,1″]terphenyl-4,4″-bis-N-hydroxycarboxamidine] the IC50 [1, 12] was greater than 201 µM, the IC50 [2, 13] was 29.1 µM and the IC50 ([3]; Table 1, k/K = thousand) was 0.925 µM.
With `NC(=NO)c1ccc(-c2ccc(-c3ccc(C(N)=NO)cc3)c(C(F)(F)F)c2)cc1` [Compound 24b, 2′-Trifluoromethyl-[1,1′;4′,1″]terphenyl-4,4″-bis-N-hydroxycarboxamidine] the IC50 [1, 12] was 29.9 µM, the IC50 [2, 13] was 13.3 µM and the IC50 ([3]; Table 1, k/K = thousand) was 3.1 µM.
`N=C(NO)c1ccc(-c2ccc(-c3ccc(C(=N)NO)cc3)nc2)cc1` [Compound 24c, Phenyl[1,1′]pyridyl[4′,1″]phenyl-4,4″-bis-N-hydroxycarboxamidine] gave an IC50 [1, 12] of 9.3 µM, an IC50 [2, 13] greater than 184 µM and an IC50 ([3]; Table 1, k/K = thousand) of 7.6 µM. The Survival [4, 8] was greater than 35.75 days and the Cures [4, 9] was 1/4.
With `CON=C(N)c1ccc(-c2ccc(-c3ccc(C(N)=NOC)cc3)c(F)c2)cc1` [Compound 25a, 2′Fluoro-[1,1′;4′,1″]terphenyl-4,4″-bis-methoxycarboxamidine] the IC50 [1, 12] was greater than 51.5 µM and the IC50 ([3]; Table 1, k/K = thousand) was 4.2 µM.
`CON=C(N)c1ccc(-c2ccc(-c3ccc(C(N)=NOC)cc3)c(C(F)(F)F)c2)cc1` [Compound 25b, 2′-Trifluoromethyl-[4′,1′;4′,1″]terphenyl-4,4″-bis-methoxycarboxamidine] showed an IC50 [1, 12] of 36.9 µM, an IC50 [2, 13] of 42.2 µM and an IC50 ([3]; Table 1, k/K = thousand) of 3.8 µM.
`CONC(=N)c1ccc(-c2ccc(-c3ccc(C(=N)NOC)cc3)nc2)cc1` [Compound 25c, Phenyl[1,1′]pyridyl[4′,1″]phenyl-4,4″-bis-N-methoxycarboxamidine] gave an IC50 [1, 12] of 34.7 µM, an IC50 [2, 13] greater than 166 µM and an IC50 ([3]; Table 1, k/K = thousand) of 3.2 µM.
`N=C(N)c1ccc(-c2cnc(-c3ccc(C(=N)N)cc3)nc2)cc1` [Compound 27, 2,5-Bis-(4′-amidinophenyl)-pyrimidine] gave an IC50 [2, 14] of 40.9 µM and an IC50 [3, 7] of 0.0005 µM.
`CON=C(N)c1ccc(-c2ccc(-c3ccc(C(N)=NOC)nc3)cc2)cn1` [Compound 33, 1,4-Bis-[5′-(N-methoxyamidinopyridin-2′-yl)]phenylene] showed an IC50 [1, 12] of 82.9 µM, an IC50 [2, 13] greater than 158 µM and an IC50 ([3]; Table 1, k/K = thousand) of 1.2 µM.
Molecule `N=C(N)c1ccc(Cc2ccc(-c3ccc(C(=N)N)cc3)nc2)cc1` [Compound 36a, 2-(4′-Amidinophenyl)-5-(4″-amidinobenzyl)pyridine acetate salt] has an IC50 [1, 12] of 0.041 µM, an IC50 [2, 13] of 18.1 µM and an IC50 ([3]; Table 1, k/K = thousand) of 0.011 µM.
For `NC(=NO)c1ccc(-c2ccc(-c3ccc(C(N)=NO)cc3)c3ccccc23)cc1` [Compound 39, Phenyl[1,1′]naphthyl-[4′,1″]phenyl-4,4″-bis-N-hydroxycarboxamidine], the IC50 [1, 15] was 13.4 µM, the IC50 [2] was 9.4 µM and the IC50 ([3]; Table 2, K = thousand) was 9.1 µM.
Molecule `CON=C(N)c1ccc(-c2ccc(-c3ccc(C(N)=NOC)cc3)c3ccccc23)cc1` [Compound 40, Phenyl[1,1′]naphthyl-[4′,1″]phenyl-4,4″-bis-N-methoxycarboxamidine] has an IC50 [1, 15] of 29.5 µM, an IC50 [2] of 16.2 µM and an IC50 ([3]; Table 2, K = thousand) of 3.9 µM.
Molecule `CCOC(=O)N=C(N)Nc1ccc(-c2ccc(-c3ccc(NC(N)=NC(=O)OCC)cc3)cc2)cc1` [Compound 50a, 4,4″-Bis(N′-ethoxycarbonyl)-guanidino-[1,1′;4′,1″]terphenyl] has an IC50 [1, 12] of 142 µM, an IC50 [2, 13] greater than 181 µM and an IC50 ([3]; Table 1, k/K = thousand) of 1.7 µM.
Work on `CCOC(=O)N=C(NC)Nc1ccc(-c2ccc(-c3ccc(NC(=NC(=O)OCC)NC)cc3)cc2)cc1` [Compound 50b, 4,4″-Bis(N′-ethoxycarbonyl-N″-methyl)-guanidino-[1,1′;4′,1″]terphenyl] yielded an IC50 [1, 12] of 7.5 µM, an IC50 [2, 13] of 5.7 µM and an IC50 ([3]; Table 1, k/K = thousand) of 8.9 µM.
Work on `CCOC(=O)N=C(Nc1ccc(-c2ccc(-c3ccc(NC(=NC(=O)OCC)NC(C)C)cc3)cc2)cc1)NC(C)C` [Compound 50c, 4,4″-Bis(N′-ethoxycarbonyl-N″-isopropyl)-guanidino-[1,1′;4′,1″]terphenyl] yielded an IC50 [1, 12] of 14.2 µM, an IC50 [2, 13] of 5.3 µM and an IC50 ([3]; Table 1, k/K = thousand) of 4.5 µM.
Work on `CNC(=N)Nc1ccc(-c2ccc(-c3ccc(NC(=N)NC)cc3)cc2)cc1` [Compound 51a, 4,4″-Bis(N′-methyl)-guanidino-[1,1′;4′,1″]terphenyl] yielded an IC50 [1, 12] of 0.018 µM, an IC50 [2, 13] of 65.1 µM and an IC50 ([3]; Table 1, k/K = thousand) of 0.007 µM.
In the case of `N=C(N)Nc1ccc(-c2ccc(-c3ccc(NC(=N)N)cn3)cc2)nc1` [Compound 55, 1,4-Bis-(5′-guanidinopyridin-2′-yl)phenylene hydrochloride salt], the IC50 [1, 5] is reported as 0.169 µM, the IC50 [2, 14] is reported as 152 µM and the IC50 [3, 7] is reported as 0.151 µM.
In the case of `Cl.NC(=NO)c1ccc(-c2ccc(-c3ccc(C(N)=NO)nc3)cc2)cn1` [Compound 67, 1,4-Bis-[2′-(N-hydroxyamidinopyridin-5′-yl)]-phenylene hydrochloride salt], the IC50 [1, 12] is reported as 12 µM, the IC50 [2, 13] is reported as 8.1 µM and the IC50 ([3]; Table 1, k/K = thousand) is reported as 2.4 µM. For the same molecule, the Cures ([4]; 25 mg/kg po, Table 5) was 0/4 and the Survival ([4]; 25 mg/kg po, Table 5) was 16.25 days.
`CON=C(N)c1ccc(-c2ccc(-c3ccc(C(N)=NOC)nc3)cc2)cn1` [Compound 68, 1,4-Bis-[2′-(N-methoxyamidinopyridin-5′-yl)]-phenylene hydrochloride salt] showed an IC50 ([1]; Table 1, k/K = thousand, hydrochloride salt, read-out: T. b. r. IC50) of 141 µM, an IC50 ([1]; Table 4, read-out: T. b. IC50) of 4.57 µM and an IC50 ([2]; read-out: CT IC50, Table 1, L-6 cells, hydrochloride salt) greater than 194 µM. It also gave an IC50 [2, 16] greater than 193 µM, an IC50 ([3]; Table 1, k/K = thousand, hydrochloride salt) of 5.5 µM and an IC50 ([3]; Table 4) of 0.637 µM.
`CN(C)CC(=O)ON=C(N)c1ccc(-c2ccc(-c3ccc(C(N)=NOC(=O)CN(C)C)nc3)cc2)cn1` [Compound 69, 1,4-Bis-{2′-[N-(N′,N′-dimethylaminoacetoxy)amidinopyridin-5′-yl]}-phenylene] was tested, and the Cures ([4]; 25 mg/kg po, Table 5) was 0/4 and the Survival ([4]; 25 mg/kg po, Table 5) was 28.25 days.
For `CON=C(N)c1ccc(-c2ccc(-c3ccc(C(N)=NOC)nc3)cn2)cc1.Cl` [Compound 91, Phenyl[1,2′]pyridinyl[5′,5″]pyridinyl-4,2″-bis-N-methoxyamidine hydrochloride salt], the IC50 ([1]; Table 4, read-out: T. b. IC50) was 1.98 µM, the IC50 [2, 16] was 12.8 µM and the IC50 ([3]; Table 4) was 2.15 µM. The Cures ([4]; 25 mg/kg ip, Table 5) was 0/4 and the Survival ([4]; 25 mg/kg ip, Table 5) was 22.25 days.
Molecule `N=C(N)c1ccc(OCCCCCOc2ccc(C(=N)N)cc2)cc1` [pentamidine, reference compound] has a Survival [4, 10] of 42.7 days and a responders at 20 mg/kg [4, 11] of 0%.
